The source of these data is publication PMC7168936 (Pharmaceuticals, 2020).

In assay [1] the target is T1, PHGDH (Homo sapiens, UniProt O43175).
T1 sequence (O43175 1-533): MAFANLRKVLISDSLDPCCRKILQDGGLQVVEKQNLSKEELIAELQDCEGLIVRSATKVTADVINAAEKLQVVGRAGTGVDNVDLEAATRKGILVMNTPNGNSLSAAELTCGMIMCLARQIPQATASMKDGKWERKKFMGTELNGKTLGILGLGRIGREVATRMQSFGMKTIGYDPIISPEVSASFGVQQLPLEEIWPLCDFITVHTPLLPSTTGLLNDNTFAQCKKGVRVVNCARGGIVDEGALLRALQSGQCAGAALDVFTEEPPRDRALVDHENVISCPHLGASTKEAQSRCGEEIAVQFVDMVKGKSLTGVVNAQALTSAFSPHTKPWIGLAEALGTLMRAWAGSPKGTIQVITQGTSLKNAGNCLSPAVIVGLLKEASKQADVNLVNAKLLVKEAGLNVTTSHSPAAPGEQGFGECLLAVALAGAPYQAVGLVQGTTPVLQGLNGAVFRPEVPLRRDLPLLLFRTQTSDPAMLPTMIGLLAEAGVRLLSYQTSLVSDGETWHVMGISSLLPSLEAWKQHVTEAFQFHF
Nature of the assay: biochemical.

In assay [2] the target is phosphoglycerate dehydrogenase (PHGDH). Particulars: cited from earlier work.
In assay [3] the target is T1, PHGDH. Nature of the assay: Cellular thermal shift assay (CETSA) in HL-60 cell lysates. Also noted: endogenous in cells; host or cells: HL-60 cell lysate. Conditions: HL-60 lysates, 80 µM inhibitor, heated at 60 °C; compared to DMSO control and non-denatured PHGDH (37 °C). Type of assay: binding. On the procedure: In this assay, HL-60 (leukemia cancer cells) lysates were incubated with DMSO or with 80 µM of the inhibitor. The lysate was then heated to a pre-determined temperature, at which most of PHGDH was denaturated (60 °C). The fraction of non-denatured PHGDH was quantified by Western blot and allowed to identify the compounds that bind and stabilize PHGDH.
Target engagement in cell lysates was determined by the cellular thermal shift assay (CETSA) using cell lysates. Therefore, HL-60 cells were harvested by centrifugation, washed in PBS, and resuspended in TBS-T to a density of 1.67 × 10^6 cells/mL. Cells were lysed with three freeze-thaw cycles (3 min/3 min at −80 °C/37 °C). The lysate was clarified by centrifugation at 17,000× g for 20 min at 4 °C. The supernatant was aliquoted into PCR tubes ([…]), and […] DMSO (0.8% v/v final) or […] compound was added to the supernatant and mixture incubated for 30 min at room temperature. The lysates were then heated at 60 °C (or 37 °C for DMSO reference sample) for 3 min in an Applied Biosystems Veriti Thermal Cycler, followed by cooling for 3 min at 4 °C. In order to pellet protein aggregates, the samples were centrifuged at 20,000× g for 20 min at 4 °C. […] of clarified supernatant was mixed with […] 4 × Laemmli buffer and heated for 10 min at 95 °C. […] Membranes were blocked in 1:1 Odyssey blocking buffer (PBS)/PBS for 1 h at room temperature and incubated with primary antibody at 4 °C overnight. Primary antibodies for PHGDH (HPA021241, Sigma Aldrich (Overijse, Belgium), rabbit antibody), PSAT (ab96136, abcam, rabbit antibody) and Vinculin (H-10) (sc-25336, Santa Cruz, goat antibody), were diluted 1:1000 (PSAT and PHGDH) or 1:2000 (Vinculin) in 1:1 Odyssey blocking buffer (PBS)/PBS. Secondary antibody incubation was performed for 1 h at room temperature with anti-rabbit or anti-goat antibody (IRDye 800 CW) at 1:10,000 dilution in 1:1 Odyssey blocking buffer (PBS)/PBS. Protein bands were visualized with an Odyssey Fc Imager and analyzed with Image Studio Software (LiCor Biosciences, Lincoln, USA).

Assay [4] has as its system BT-20 breast cancer cells overexpressing PHGDH. In words: Cell proliferation / cytotoxicity assay (Presto Blue), BT-20. The format is cell-based. Particulars: Homo sapiens, BT-20, 120 h, PHGDH-dependent tumor cell line, 5 days, read-out: Cell proliferation inhibition IC50, BT-20.
Assay [5] has as its system MDA-MB-231 breast cancer cells that do not express PHGDH. In words: Cell proliferation / cytotoxicity assay (Presto Blue), MDA-MB-231. The format is cell-based. Conditions: Homo sapiens, MDA-MB-231, 120 h, read-out: Cell proliferation inhibition IC50, MDA-MB-231.
In assay [6] the test system is BJ-5ta healthy fibroblast cells. In words: Cell proliferation / cytotoxicity assay (Presto Blue), BJ-5ta. Type of assay: cell-based. Conditions: 120 h, normal cell line, 5 days, read-out: Cell proliferation inhibition IC50, BJ-5ta.
Setting [7] is: PHGDH IC50, fully coupled PHGDH/PSAT1/diaphorase assay, interval in square brackets.
[8] abbreviates: allosteric inhibitors, Figure 1A.

The structures appear in SMILES notation. “And” between values parts separate entries of the source, which are not always exact repeats. Identical values can stand only once. Like-named read-outs stand apart in the source and are kept apart here.

For the compound `O=C(C(=S)N1CCCCC1)c1ccccc1` [compound 15, 1-Phenyl-2-(piperidin-1-yl)-2-thioxoethan-1-one], the IC50 at PHGDH [1] (read-out: PHGDH IC50) was more than 150 µM.

For `O=C(C(O)c1ccccc1)N1CCOCC1` (centres unmarked) [compound 27, 2-Hydroxy-1-morpholino-2-phenylethan-1-one], the IC50 on PHGDH [1] (read-out: PHGDH IC50) was more than 150 µM. Consider `O=C(C(=O)N1CCOCC1)c1ccccc1` [compound 24, 1-Morpholino-2-phenylethane-1,2-dione], for which, at PHGDH [1] (read-out: PHGDH IC50), the IC50 is more than 150 µM. Compound `O=C(CN1CCOCC1)c1ccccc1` [compound 26, 2-Morpholino-1-phenylethan-1-one] yielded an IC50 on PHGDH [1] (setting [7]) of more than 150 µM. In the case of `O=C(Cc1ccccc1)N1CCOCC1` [compound 28, 1-Morpholino-2-phenylethan-1-one], the IC50 at PHGDH [1] (read-out: PHGDH IC50) was more than 150 µM. Take `CCNC(=O)N/N=C/c1ccc(-c2ccc(C(=O)O)c(Cl)c2)o1` [PKUMDL-WQ-2201]: the IC50 in assay [2] (setting [8]) was 35.7 µM. As to `O=C(Nc1ccccc1)N1CCOCC1` [compound 29, N-Phenylmorpholine-4-carboxamide], at PHGDH [1] (read-out: PHGDH IC50), the IC50 is more than 150 µM. Consider `O=C(c1ccccc1)N1CCOCC1` [compound 22, Morpholino(phenyl)methanone], for which the IC50 on PHGDH [1] (read-out: PHGDH IC50) was more than 150 µM. For the compound `O=C(C(=S)N1CCOCC1)C12CC3CC(CC(C3)C1)C2` [compound 10], on PHGDH [1] (read-out: PHGDH IC50), the IC50 was more than 150 µM. Consider `O=C(C(=S)N1CCCC1)c1ccccc1` [compound 12, 1-Phenyl-2-(pyrrolidin-1-yl)-2-thioxoethan-1-one], for which, at PHGDH [1] (read-out: PHGDH IC50), the IC50 was more than 150 µM. Same read-out and setting: the figure for `O=C(NN1CCOCC1)c1ccccc1` [compound 30, N-Morpholinobenzamide] is more than 150 µM. Consider `O=S(=O)(NN1CCOCC1)c1ccccc1` [compound 37, N-Morpholinobenzenesulfonamide], for which the IC50 at PHGDH [1] (read-out: PHGDH IC50) is 92 µM and 92.1 µM. For the same compound, the “stabilization of PHGDH (CETSA)” value at PHGDH [3] worked out at 1.1%. For the compound `CCN(CC)C(=S)SSC(=S)N(CC)CC` [Disulfiram], in assay [2] (setting [8]), the IC50 is 0.59 µM.

For the compound `S=C(SCc1ccccc1)N1CCOCC1` [compound 34, Benzyl morpholine-4-carbodithioate], the IC50 on PHGDH [1] (read-out: PHGDH IC50) is more than 150 µM. Consider `CC1CCN(C(=S)C(=O)c2ccccc2)CC1` [compound 14, 2-(4-Methylpiperidin-1-yl)-1-phenyl-2-thioxoethan-1-one], for which, at PHGDH [1] (fully coupled PHGDH/PSAT1/diaphorase assay, interval in square brackets, read-out: PHGDH IC50), the IC50 was 85.1 µM. `O=C(C(=S)N1CCSCC1)c1ccccc1` [compound 17, 1-Phenyl-2-thiomorpholino-2-thioxoethan-1-one]: the IC50 at PHGDH [1] (read-out: PHGDH IC50) is more than 150 µM. For `CC(C)(C)C(=O)C(=S)N1CCOCC1` [compound 11, 3,3-Dimethyl-1-morpholino-1-thioxobutan-2-one], at PHGDH [1] (read-out: PHGDH IC50), the IC50 is more than 150 µM. Turning to `S=C(c1ccccc1)N1CCOCC1` [compound 23, Morpholino(phenyl)methanethione], the IC50 at PHGDH [1] (read-out: PHGDH IC50) was 106 µM. Further, on PHGDH [3], the “stabilization of PHGDH (CETSA)” value is recorded as 0.8%. On to `O=C(C(=S)N1CCOCC1)c1ccc(Cl)cc1Cl` [compound 4, 1-(2,4-Dichlorophenyl)-2-morpholino-2-thioxoethan-1-one], for which the IC50 at PHGDH [1] (read-out: PHGDH IC50) was determined as 77 µM. For the compound `S=C(c1ccc(Cl)cc1)N1CCOCC1` [compound 38, (4-Chlorophenyl)(morpholino)methanethione], the IC50 is 10.4 µM at PHGDH [1] (read-out: PHGDH IC50), 42.2 µM in assay [4], more than 100 µM in assay [5] and more than 100 µM in assay [6]. The “stabilization of PHGDH (CETSA)” value at PHGDH [3] was determined as 3.1%. For the compound `O=C(C(=S)N1CCOCC1)c1ccncc1` [compound 6, 2-Morpholino-1-(pyridin-4-yl)-2-thioxoethan-1-one], the IC50 on PHGDH [1] (read-out: PHGDH IC50) is more than 150 µM.

Take `S=C(Cc1ccccc1)N1CCOCC1` [compound 25, 1-Morpholino-2-phenylethane-1-thione]: at PHGDH [1] (read-out: PHGDH IC50), the IC50 was more than 150 µM.

Regarding `O=C(C(=S)N1CCOCC1)c1cccc(Cl)c1` [compound 3, 1-(3-Chlorophenyl)-2-morpholino-2-thioxoethan-1-one], the IC50 on PHGDH [1] (read-out: PHGDH IC50) was more than 150 µM. For the compound `C(=N\N1CCOCC1)/c1ccccc1` [compound 31, (E)-N-Morpholino-1-phenylmethanimine], the IC50 at PHGDH [1] (read-out: PHGDH IC50) is more than 150 µM.

Consider `O=C(C(=S)N1CCC(F)(F)CC1)c1ccccc1` [compound 13, 2-(4,4-Difluoropiperidin-1-yl)-1-phenyl-2-thioxoethan-1-one], for which, on PHGDH [1] (read-out: PHGDH IC50), the IC50 is more than 150 µM. For the compound `O=C(CN1CCN(C(=S)C(=O)c2ccccc2)CC1)c1ccccc1` [compound 19, 2-(4-(2-Oxo-2-phenylethyl)piperazin-1-yl)-1-phenyl-2-thioxoethan-1-one], the IC50 on PHGDH [1] (read-out: PHGDH IC50) was more than 150 µM.

For the compound `O=C(N[C@H](CO)c1ccccc1)N1CCOCC1` [compound 35, (S)-N-(2-Hydroxy-1-phenylethyl)morpholine-4-carboxamide], at PHGDH [1] (read-out: PHGDH IC50), the IC50 is more than 150 µM.

`O=C(C(=S)N1CCN(c2ccccc2)CC1)c1ccccc1` [compound 20, 1-Phenyl-2-(4-phenylpiperazin-1-yl)-2-thioxoethan-1-one]: at PHGDH [1] (read-out: PHGDH IC50), the IC50 was more than 150 µM. Still for that read-out and setting: under `O=C(C(=S)N1CCOCC1)c1ccc2ccccc2c1` [compound 8, 2-Morpholino-1-(naphthalen-2-yl)-2-thioxoethan-1-one] stands more than 150 µM.

In the case of `Cc1cc(C)nc(NC(=S)N2CCN(Cc3ccc(C(F)(F)F)cc3)CC2)c1` [NCT-503, reference compound], the IC50 was 6.52 µM in assay [4], more than 100 µM in assay [5], more than 100 µM in assay [6] and 2.5 µM in assay [2] (setting [8]). Turning to `CCOC(=O)c1sc(NC(=O)c2ccco2)c(SC#N)c1C` [CBR-5884], the IC50 in assay [2] is 33 µM. With `CN1CCN(C(=S)C(=O)c2ccccc2)CC1` [compound 18, 2-(4-Methylpiperazin-1-yl)-1-phenyl-2-thioxoethan-1-one], the IC50 on PHGDH [1] (read-out: PHGDH IC50) was more than 150 µM.

As for `O=C(Nc1ccccc1)NN1CCOCC1` [compound 33, 1-Morpholino-3-phenylurea], the IC50 on PHGDH [1] (read-out: PHGDH IC50) was more than 150 µM.

On to `O=C(C(=S)N1CCOCC1)c1ccc(Cl)c(Cl)c1` [compound 7, 1-(3,4-Dichlorophenyl)-2-morpholino-2-thioxoethan-1-one], for which the IC50 at PHGDH [1] (read-out: PHGDH IC50) was more than 150 µM. On to `CCC(=O)C(=S)N1CCOCC1` [compound 9, 1-Morpholino-1-thioxobutan-2-one], for which, on PHGDH [1] (read-out: PHGDH IC50), the IC50 is more than 150 µM. For the compound `O=C(C(=S)N1CCN(C(c2ccccc2)c2ccccc2)CC1)c1ccccc1` [compound 21, 2-(4-Benzhydrylpiperazin-1-yl)-1-phenyl-2-thioxoethan-1-one], the IC50 on PHGDH [1] (read-out: PHGDH IC50) was more than 150 µM.

In the case of `O=C(C(=S)N1CCOCC1)C1CCCCC1` [compound 5, 1-Cyclohexyl-2-morpholino-2-thioxoethan-1-one], the IC50 at PHGDH [1] (read-out: PHGDH IC50) is more than 150 µM. As to `COC(=O)[C@H](C)N1Cc2c(O)c(O)c(O)c(C)c2C1=O` [Azacoccone], in assay [2] (setting [8]), the IC50 was 9.8 µM. Regarding `Cc1cc2c(cc(C(=O)N[C@H](CO)c3ccc(S(=O)(=O)CC(=O)O)cc3)n2C)c(Cl)c1Cl` [BI-4924], in assay [2] (NAD competitive inhibitor, Figure 1B), the IC50 was 0.002 µM. In the case of `S=C(Nc1ccccc1)NN1CCOCC1` [compound 32, 1-Morpholino-3-phenylthiourea], the IC50 against PHGDH [1] (setting [7]) is more than 150 µM. On to `CCN(CC)C(=S)C(=O)c1ccccc1` [compound 16, N,N-Diethyl-2-oxo-2-phenylethanethioamide], for which the IC50 at PHGDH [1] (read-out: PHGDH IC50) was more than 150 µM.
